Source: paper PMC10174618, “Monoterpenoid aryl hydrocarbon receptor allosteric antagonists protect against ultraviolet skin damage in female mice” (Nature Communications, 2023)

Legend:
Assay in all cases: biochemical
Set-up in all cases: KINOMEscan scanMAX active site-directed competition binding assay, percent of control, 468 kinases
Conditions in all cases: competition binding, percent of control
CDK3 = CDK3 (Homo sapiens, UniProt Q00526)
Outline: (§1)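 KINOMEscan active site-directed competition binding assay against 468 human kinases with 100 μM S-carvone. Binding expressed as % of control, with 35% of control as the inhibition threshold.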

[1] = target: T1, ABL1(T315I)-nonphosphorylated (Homo sapiens, UniProt P00519, T315I)
T1 construct: nonphosphorylated
Outline: as §1

DRAK1 = target: T2, DRAK1 (Homo sapiens, UniProt Q9UEE5)
T2 construct: gene STK17A
Outline: as §1

LYN = LYN (Homo sapiens, UniProt P07948)
Outline: as §1

TNK1 = TNK1 (Homo sapiens, UniProt Q13470)
Outline: as §1

BLK = BLK (Homo sapiens, UniProt P51451)
Outline: as §1

NEK10 = NEK10 (Homo sapiens, UniProt Q6ZWH5)
Outline: as §1

TSSK3 = TSSK3 (Homo sapiens, UniProt Q96PN8)
Outline: as §1

PIP5K2C = target: T3, PIP5K2C (Homo sapiens, UniProt Q8TBX8)
T3 construct: gene PIP4K2C
Outline: as §1

ERK8 = target: T4, ERK8 (Homo sapiens, UniProt Q8TD08)
T4 construct: gene MAPK15
Outline: as §1

[2] = target: T5, RSK4(Kin.Dom.2-C-terminal) (Homo sapiens, UniProt Q9UK32)
T5 construct: gene RPS6KA6; Kin.Dom.2-C-terminal
Outline: as §1

WEE2 = WEE2 (Homo sapiens, UniProt P0C1S8)
Outline: as §1

GCN2(Kin.Dom.2,S808G) = target: T6, GCN2(Kin.Dom.2,S808G) (Homo sapiens, UniProt Q9P2K8, S808G)
T6 construct: gene EIF2AK4; Kin.Dom.2
Outline: as §1

MAK = MAK (Homo sapiens, UniProt P20794)
Outline: as §1

EPHA6 = EPHA6 (Homo sapiens, UniProt Q9UF33)
Outline: as §1

BRAF = BRAF (Homo sapiens, UniProt P15056)
Outline: as §1

MAPKAPK2 = MAPKAPK2 (Homo sapiens, UniProt P49137)
Outline: as §1

KIT(V559D) = KIT(V559D) (Homo sapiens, UniProt P10721, V559D)
Outline: as §1

[3] = target: T7, ABL1(F317L)-nonphosphorylated (Homo sapiens, UniProt P00519, F317L)
T7 construct: nonphosphorylated
Outline: as §1

LZK = target: T8, LZK (Homo sapiens, UniProt O43283)
T8 construct: gene MAP3K13
Outline: as §1

[4] = target: T9, RSK3(Kin.Dom.2-C-terminal) (Homo sapiens, UniProt Q15349)
T9 construct: gene RPS6KA2; Kin.Dom.2-C-terminal
Outline: as §1

Sequence of KIT(V559D) (P10721 whole entry V559D): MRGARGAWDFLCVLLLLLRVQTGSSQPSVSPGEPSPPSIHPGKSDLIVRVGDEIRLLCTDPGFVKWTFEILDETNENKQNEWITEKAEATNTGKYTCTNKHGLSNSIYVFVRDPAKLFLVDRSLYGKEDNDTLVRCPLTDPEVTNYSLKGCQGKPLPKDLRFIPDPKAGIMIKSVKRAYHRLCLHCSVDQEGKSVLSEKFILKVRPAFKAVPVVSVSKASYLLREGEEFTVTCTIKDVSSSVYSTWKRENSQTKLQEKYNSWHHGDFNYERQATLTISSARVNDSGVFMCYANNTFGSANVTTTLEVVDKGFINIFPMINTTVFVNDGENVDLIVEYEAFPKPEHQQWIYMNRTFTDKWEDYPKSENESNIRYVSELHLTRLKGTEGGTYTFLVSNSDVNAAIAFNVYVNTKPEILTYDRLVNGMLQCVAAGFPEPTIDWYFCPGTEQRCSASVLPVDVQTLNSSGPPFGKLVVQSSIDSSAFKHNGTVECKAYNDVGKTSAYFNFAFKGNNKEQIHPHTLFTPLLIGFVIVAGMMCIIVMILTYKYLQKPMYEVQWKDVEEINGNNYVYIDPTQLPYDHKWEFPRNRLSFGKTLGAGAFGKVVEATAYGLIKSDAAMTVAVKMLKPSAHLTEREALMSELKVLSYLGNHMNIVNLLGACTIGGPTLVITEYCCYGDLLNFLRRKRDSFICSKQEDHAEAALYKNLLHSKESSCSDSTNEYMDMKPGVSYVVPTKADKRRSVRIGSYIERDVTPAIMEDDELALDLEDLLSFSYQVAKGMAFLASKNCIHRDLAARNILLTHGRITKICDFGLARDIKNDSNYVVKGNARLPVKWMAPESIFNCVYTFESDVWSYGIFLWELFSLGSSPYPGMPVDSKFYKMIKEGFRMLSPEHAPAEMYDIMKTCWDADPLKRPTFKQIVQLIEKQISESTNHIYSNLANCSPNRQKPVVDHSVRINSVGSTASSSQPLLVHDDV
Sequence of TSSK3 (Q96PN8 whole entry): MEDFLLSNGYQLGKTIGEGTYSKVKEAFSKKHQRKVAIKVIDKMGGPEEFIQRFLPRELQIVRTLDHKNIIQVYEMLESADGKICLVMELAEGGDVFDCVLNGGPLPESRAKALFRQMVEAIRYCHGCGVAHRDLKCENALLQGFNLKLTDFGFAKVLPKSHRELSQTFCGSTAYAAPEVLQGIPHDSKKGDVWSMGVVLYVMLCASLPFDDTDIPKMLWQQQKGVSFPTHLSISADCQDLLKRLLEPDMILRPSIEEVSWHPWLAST
T4 sequence (Q8TD08 whole entry): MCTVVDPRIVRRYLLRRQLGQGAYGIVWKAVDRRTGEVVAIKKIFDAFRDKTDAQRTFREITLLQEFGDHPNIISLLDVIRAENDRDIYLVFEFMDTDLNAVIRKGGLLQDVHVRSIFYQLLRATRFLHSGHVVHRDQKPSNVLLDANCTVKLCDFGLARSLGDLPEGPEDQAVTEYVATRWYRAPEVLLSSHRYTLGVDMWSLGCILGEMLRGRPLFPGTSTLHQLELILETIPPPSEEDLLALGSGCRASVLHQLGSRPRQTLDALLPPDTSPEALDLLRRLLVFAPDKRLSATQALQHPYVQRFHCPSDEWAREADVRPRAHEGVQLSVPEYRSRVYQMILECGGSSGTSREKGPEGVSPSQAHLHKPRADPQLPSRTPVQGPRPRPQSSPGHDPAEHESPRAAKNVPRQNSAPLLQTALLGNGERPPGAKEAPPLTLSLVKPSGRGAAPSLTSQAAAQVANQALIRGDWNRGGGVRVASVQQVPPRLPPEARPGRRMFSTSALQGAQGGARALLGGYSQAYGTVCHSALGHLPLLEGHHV
Sequence of MAPKAPK2 (P49137 whole entry): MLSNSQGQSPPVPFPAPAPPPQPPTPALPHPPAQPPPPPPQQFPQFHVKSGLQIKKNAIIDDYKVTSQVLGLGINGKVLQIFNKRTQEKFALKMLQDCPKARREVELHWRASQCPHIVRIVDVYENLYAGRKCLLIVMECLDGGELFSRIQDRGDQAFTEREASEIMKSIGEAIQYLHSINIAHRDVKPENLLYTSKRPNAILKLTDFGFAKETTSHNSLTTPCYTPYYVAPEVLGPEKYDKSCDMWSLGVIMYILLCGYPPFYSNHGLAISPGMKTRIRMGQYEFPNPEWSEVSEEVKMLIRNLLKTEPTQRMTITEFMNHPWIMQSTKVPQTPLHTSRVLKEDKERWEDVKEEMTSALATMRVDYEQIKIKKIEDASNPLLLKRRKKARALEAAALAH
Sequence of BLK (P51451 whole entry): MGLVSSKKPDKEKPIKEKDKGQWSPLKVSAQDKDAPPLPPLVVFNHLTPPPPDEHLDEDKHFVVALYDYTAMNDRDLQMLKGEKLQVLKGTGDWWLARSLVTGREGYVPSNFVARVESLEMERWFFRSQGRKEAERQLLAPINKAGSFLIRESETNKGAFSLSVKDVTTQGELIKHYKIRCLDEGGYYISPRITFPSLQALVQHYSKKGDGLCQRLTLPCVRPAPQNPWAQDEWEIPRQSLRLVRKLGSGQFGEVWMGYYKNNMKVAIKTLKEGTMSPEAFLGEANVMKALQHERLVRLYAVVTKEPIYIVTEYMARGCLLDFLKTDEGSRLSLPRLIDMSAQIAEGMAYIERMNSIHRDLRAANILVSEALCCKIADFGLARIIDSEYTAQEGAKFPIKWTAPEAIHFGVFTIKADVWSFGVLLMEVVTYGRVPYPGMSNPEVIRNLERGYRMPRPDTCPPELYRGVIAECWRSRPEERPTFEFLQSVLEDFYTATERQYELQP
Sequence of NEK10 (Q6ZWH5 whole entry): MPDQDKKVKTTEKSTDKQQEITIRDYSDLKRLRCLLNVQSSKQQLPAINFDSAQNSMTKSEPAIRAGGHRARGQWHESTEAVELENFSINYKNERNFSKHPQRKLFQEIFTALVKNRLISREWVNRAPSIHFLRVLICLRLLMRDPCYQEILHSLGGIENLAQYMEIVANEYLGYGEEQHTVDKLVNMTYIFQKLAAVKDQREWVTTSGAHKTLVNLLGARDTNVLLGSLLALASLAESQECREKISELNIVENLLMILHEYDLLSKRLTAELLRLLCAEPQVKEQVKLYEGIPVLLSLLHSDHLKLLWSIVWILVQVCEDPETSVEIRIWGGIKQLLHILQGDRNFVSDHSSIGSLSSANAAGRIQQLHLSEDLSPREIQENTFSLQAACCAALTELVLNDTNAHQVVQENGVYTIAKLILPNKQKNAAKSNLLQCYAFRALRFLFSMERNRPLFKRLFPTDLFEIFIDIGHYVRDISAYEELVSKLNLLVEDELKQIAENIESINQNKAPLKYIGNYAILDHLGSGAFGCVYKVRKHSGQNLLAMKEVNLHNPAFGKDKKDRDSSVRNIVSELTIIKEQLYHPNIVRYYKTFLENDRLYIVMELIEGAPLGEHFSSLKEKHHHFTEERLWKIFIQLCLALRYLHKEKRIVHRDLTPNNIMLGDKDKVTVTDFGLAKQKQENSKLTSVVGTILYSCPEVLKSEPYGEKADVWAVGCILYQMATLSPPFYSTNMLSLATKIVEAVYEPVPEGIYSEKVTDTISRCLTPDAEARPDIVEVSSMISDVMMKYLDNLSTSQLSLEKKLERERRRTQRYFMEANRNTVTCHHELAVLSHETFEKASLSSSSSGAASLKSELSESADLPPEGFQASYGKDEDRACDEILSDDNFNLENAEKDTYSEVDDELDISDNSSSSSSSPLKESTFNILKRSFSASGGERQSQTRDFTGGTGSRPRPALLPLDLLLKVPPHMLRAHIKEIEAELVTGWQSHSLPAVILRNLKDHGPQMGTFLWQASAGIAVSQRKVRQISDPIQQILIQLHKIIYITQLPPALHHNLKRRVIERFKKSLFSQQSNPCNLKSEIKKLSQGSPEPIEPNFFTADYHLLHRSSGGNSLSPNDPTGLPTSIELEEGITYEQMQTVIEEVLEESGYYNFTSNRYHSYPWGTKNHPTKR
T9 sequence (Q15349 whole entry): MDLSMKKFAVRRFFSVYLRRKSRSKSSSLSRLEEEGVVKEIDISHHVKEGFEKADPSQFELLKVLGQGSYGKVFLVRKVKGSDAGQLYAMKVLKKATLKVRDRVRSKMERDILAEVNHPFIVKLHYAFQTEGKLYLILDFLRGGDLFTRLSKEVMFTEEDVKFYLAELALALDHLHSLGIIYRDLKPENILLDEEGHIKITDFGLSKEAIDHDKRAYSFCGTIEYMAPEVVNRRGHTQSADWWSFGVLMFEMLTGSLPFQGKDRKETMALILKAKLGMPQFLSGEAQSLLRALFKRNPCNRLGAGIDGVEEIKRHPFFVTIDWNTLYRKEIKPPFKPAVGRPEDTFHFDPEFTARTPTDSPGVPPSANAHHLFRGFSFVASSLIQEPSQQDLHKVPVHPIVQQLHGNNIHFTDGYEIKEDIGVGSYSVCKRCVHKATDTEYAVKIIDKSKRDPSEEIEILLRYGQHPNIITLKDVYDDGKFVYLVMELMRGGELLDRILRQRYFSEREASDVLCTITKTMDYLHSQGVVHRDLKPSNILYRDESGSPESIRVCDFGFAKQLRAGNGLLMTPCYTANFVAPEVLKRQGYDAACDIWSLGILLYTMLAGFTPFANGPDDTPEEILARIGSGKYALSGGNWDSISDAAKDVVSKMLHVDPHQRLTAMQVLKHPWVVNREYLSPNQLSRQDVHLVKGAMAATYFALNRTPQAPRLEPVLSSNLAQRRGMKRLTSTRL
T2 sequence (Q9UEE5 whole entry): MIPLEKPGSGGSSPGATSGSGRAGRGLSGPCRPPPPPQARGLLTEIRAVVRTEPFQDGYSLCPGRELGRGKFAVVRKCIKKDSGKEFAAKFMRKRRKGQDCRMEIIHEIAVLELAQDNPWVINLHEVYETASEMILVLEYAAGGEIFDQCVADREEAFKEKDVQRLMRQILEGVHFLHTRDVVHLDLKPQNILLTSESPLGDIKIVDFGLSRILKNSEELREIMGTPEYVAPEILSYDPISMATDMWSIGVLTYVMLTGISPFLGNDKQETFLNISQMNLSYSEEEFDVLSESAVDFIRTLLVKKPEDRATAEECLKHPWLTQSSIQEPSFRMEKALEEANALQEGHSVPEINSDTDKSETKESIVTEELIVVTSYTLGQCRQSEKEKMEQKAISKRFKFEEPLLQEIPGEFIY

remaining binding at 100 µM (CDK3): 92% | remaining binding at 100 µM [1]: 78% | remaining binding at 100 µM (DRAK1): 100% | remaining binding at 100 µM (LYN): 72% | remaining binding at 100 µM (TNK1): 100% | remaining binding at 100 µM (BLK): 80% | remaining binding at 100 µM (NEK10): 71% | remaining binding at 100 µM (TSSK3): 100% | remaining binding at 100 µM (PIP5K2C): 88% | remaining binding at 100 µM [2]: 57% | remaining binding at 100 µM (WEE2): 88% | remaining binding at 100 µM (GCN2(Kin.Dom.2,S808G)): 63% | remaining binding at 100 µM (MAK): 73% | remaining binding at 100 µM (EPHA6): 64% | remaining binding at 100 µM (BRAF): 83% | remaining binding at 100 µM (MAPKAPK2): 77% | remaining binding at 100 µM (KIT(V559D)): 89% | remaining binding at 100 µM [3]: 78% | remaining binding at 100 µM (LZK): 78% | remaining binding at 100 µM [4]: 63%
Structure (SMILES): C=C(C)[C@H]1CC=C(C)C(=O)C1 [S-carvone]
remaining binding at 100 µM (ERK8): 91%
